Results reported in patent publication US12509450B2, “Solid forms of a dual RAF/MEK inhibitor” (Verastem, Inc., priority 2022, dated 2025).

What was measured:
[1] = Dynamic vapor sorption (DVS) moisture sorption isotherm; type: physicochemical; settings: for solid form after DVS (XRPD): XRPD of post-DVS sample
Procedure: Samples were analyzed using a TA Instruments Q5000SA gravimetric water sorption analyzer. The weight of the sample was continuously monitored and recorded with respect to the relative humidity (RH) and time. Samples of 5-10 mg were placed in a tared, hermetically sealed aluminum DVS pan under ambient conditions. The sample pan was punctured prior to being loaded into the humidity chamber. A moisture sorption isotherm was performed at 25° C. at 10% RH intervals over a 0-90% RH range. Three cycles were carried out. If the mass gain or loss on a sorption step was less than 0.1% over 15 minutes, the next humidity interval would begin. If weight continued to change after 120 minutes at a given step, the step would time out and proceed to the next humidity interval.

[2] = Stability of Form 1 under stressed conditions (XRPD, UPLC purity, KF water content); type: physicochemical; settings: for Purity (Week 1): week 1, UPLC; for Purity (Week 4): week 4, UPLC; for Water content (Week 5): week 5, KF
Procedure: X-ray powder diffraction patterns were obtained using a Bruker D8 equipped with a Cu Kα radiation (40 kV, 40 mA) source (λ=1.54°A), a 9-position sample holder, and a θ-2θ goniometer fitted with a Ge monochromator. The incident beam passes through a 2.0 mm divergence slit followed by a 0.2 mm antiscatter slit. The diffracted beam passes through an 8.0 mm receiving slit with 2.5° Soller slits followed by a LYNXEYE super speed detector. Samples were prepared on polished, zero-background silicon plates and run using a low background, airtight specimen dome.
A Mettler Toledo DL39 Coulometric KF Titrator was used to determine the apparent water content in samples. About 90-100 mg of the solid was used for titration. To limit the exposure of the solution to the air, the titrator opening was closed by a stopper immediately after adding samples. HYDRANAL-Coulomat AD was used as the titrant added at 40% speed. The mixing time used was 30 seconds prior to analysis.
The purity of the sample was determined using the method provided by the Analytical Development at JM. Data were collected using an Agilent […] Series UPLC system and analyzed using Chemstation software.
Form 1 solids were stored in 40° C./75% RH or 30° C./65% RH conditions. The XRPD and UPLC purity were measured at week 1 and week 4 time points. […] Additionally, water content was measured by KF at Week 5.

| SMILES | hygroscopicity ([1]; DVS, 25° C.) | weight change between 0-90% RH ([1]; DVS, 25° C.) | weight gain observed between 80-90% RH ([1]; DVS, 25° C.) | solid form after DVS (XRPD) [1] | XRPD (Week 1) ([2]; 30° C./65% RH) | Purity (Week 1) ([2]; 30° C./65% RH) | XRPD (Week 4) ([2]; 30° C./65% RH) | Purity (Week 4) ([2]; 30° C./65% RH) | Water content (Week 5) ([2]; 30° C./65% RH) | purity determined by UPLC on storage ([2]; 40° C./75% RH or 30° C./65% RH, week 1 and week 4) | water content by KF on storage versus initial ([2]; 40° C./75% RH or 30° C./65% RH, week 5) | XRPD (Week 1) ([2]; 40° C./75% RH) | Purity (Week 1) ([2]; 40° C./75% RH) | XRPD (Week 4) ([2]; 40° C./75% RH) | Purity (Week 4) ([2]; 40° C./75% RH) | Water content (Week 5) ([2]; 40° C./75% RH) | weight change between 0-80% RH ([1]; DVS, 25° C., 0-80% RH) | weight gain at above 80% RH ([1]; DVS, 25° C., above 80% RH) |
| --- | --- | --- | --- | --- | --- | --- | --- | --- | --- | --- | --- | --- | --- | --- | --- | --- | --- | --- |
| CNS(=O)(=O)Nc1nccc(Cc2c(C)c3ccc(Oc4ncccn4)cc3oc2=O)c1F [Form 1] | slightly hygroscopic | about 1.8% | > 1% | no form change | Form 1 | 99.2% | Form 1 | 99.2% | 0.6% | remained statistically unchanged | consistent with initial water content | Form 1 | 99.2% | Form 1 | 99.2% | 0.5% | – | – |
| CNS(=O)(=O)Nc1nccc(Cc2c(C)c3ccc(Oc4ncccn4)cc3oc2=O)c1F [Form 8] | slightly hygroscopic | – | > 0.27% | converted to Form 1 | – | – | – | – | – | – | – | – | – | – | – | – | up to 0.44% | at least 1.12% |
| CNS(=O)(=O)Nc1nccc(Cc2c(C)c3ccc(Oc4ncccn4)cc3oc2=O)c1F.[K+] [Form 10] | hygroscopic | about 5.5% | – | converted to Form 1 | – | – | – | – | – | – | – | – | – | – | – | – | – | – |
